# Key:
# Format in all cases: cell-based
# [1] = test system: Human hepatocytes (HepaRG cells); test: Human cytotoxicity assay in vitro (CellTiter-Glo), hepatocytes; conditions: hepatocyte cytotoxicity score; 24 h exposure
# [2] = test system: Human keratinocytes (HaCaT cells); test: Human cytotoxicity assay in vitro (CellTiter-Glo), keratinocytes; conditions: keratinocyte cytotoxicity score; 24 h exposure
# [3] = test system: vancomycin-resistant Staphylococcus aureus (from MRSA, COL); test: microbe, parasite or virus in culture; conditions: Staphylococcus aureus, MRSA, read-out: MIC for the resistant strain
# [4] = test system: linezolid-resistant Staphylococcus aureus (from MRSA, COL); test: microbe, parasite or virus in culture; conditions: Staphylococcus aureus, MRSA, read-out: MIC for the resistant strain
Structure (SMILES),cytotoxicity cell line H [1],cytotoxicity cell line K [2],MIC [3],MIC [4]
C#Cc1ccc(-c2nc(-c3ccc(-c4ccccc4C(F)(F)F)o3)[nH]c2C)cc1 [Compound 27],1 (compounds not causing a loss of viability at concentrations between 25 and 50 μM),2 (compounds causing>50% inhibition of cell viability at 25 μM),,
Cc1ccc(-c2ccc(-c3nc(-c4ccccc4)c(C)[nH]3)s2)cc1 [Compound 54],1 (compounds not causing a loss of viability at concentrations between 25 and 50 μM),1 (compounds causing less than 50% inhibition of cell viability at 50 μM),,
Cc1[nH]c(-c2ccn(-c3ccccc3C(F)(F)F)c2)nc1-c1ccccc1 [Compound 33],,3 (compounds causing more than 50% inhibition of cell viability at 10 μM),,
Cc1nc(-c2ccc(-c3cccc(OC(F)(F)F)c3)o2)[nH]c1-c1ccc(F)cc1 [Compound 37],3,2 (compounds causing>50% inhibition of cell viability at 25 μM),,
Cc1[nH]c(-c2ccc(-c3ccc(Cl)cc3)s2)nc1-c1ccccc1 [Compound 6],0 (compounds without signs of cell viability loss at concentrations of 50 μM or higher),0 (compounds not causing loss of cell viability at concentrations of 50 μM or higher),,
Cc1[nH]c(-c2ccc(-c3ccccc3OC(F)(F)F)o2)nc1-c1ccc(C(F)(F)F)cc1 [Compound 26],1 (compounds not causing a loss of viability at concentrations between 25 and 50 μM),0 (compounds not causing loss of cell viability at concentrations of 50 μM or higher),,
Cc1nc(-c2ccc(-c3ccc(Cl)cc3Cl)o2)[nH]c1-c1ccc(F)cc1 [Compound 16],3,1 (compounds causing less than 50% inhibition of cell viability at 50 μM),,
Cc1ccc(-c2nc(-c3nc(-c4ccccc4)c(C)[nH]3)co2)cc1 [Compound 57],1 (compounds not causing a loss of viability at concentrations between 25 and 50 μM),3 (compounds causing more than 50% inhibition of cell viability at 10 μM),,
"Cc1[nH]c(-c2ccc(-c3ccccc3OC(F)(F)F)o2)nc1Cc1ccc(Br)cc1 [Compound 30, 4-(4-Bromo-benzyl)-5-methyl-2-[5-(2-trifluoromethoxy-phenyl)-furan-2-yl]-1H-imidazole]",3,3 (compounds causing more than 50% inhibition of cell viability at 10 μM),,
FC(F)(F)Oc1ccccc1-c1ccc(-c2nc(-c3ccc(Cl)cc3Cl)c[nH]2)o1 [Compound 68],2,2 (compounds causing>50% inhibition of cell viability at 25 μM),,
Cc1nc(-c2ccc(-c3ccccc3C(F)(F)F)o2)[nH]c1-c1ccccc1Cl [Compound 20],3,0 (compounds not causing loss of cell viability at concentrations of 50 μM or higher),,
"CN[C@H](CC(C)C)C(=O)N[C@H]1C(=O)N[C@@H](CC(N)=O)C(=O)N[C@H]2C(=O)N[C@H]3C(=O)N[C@H](C(=O)N[C@H](C(=O)O)c4cc(O)cc(O)c4-c4cc3ccc4O)[C@H](O)c3ccc(c(Cl)c3)Oc3cc2cc(c3O[C@@H]2O[C@H](CO)[C@@H](O)[C@H](O)[C@H]2O[C@H]2C[C@](C)(N)[C@H](O)[C@H](C)O2)Oc2ccc(cc2Cl)[C@H]1O [vancomycin, Vancomycin, reference compound]",,,20 µg/mL,
FC(F)(F)Oc1ccccc1-c1ccc(-c2nc(-c3ccccc3Cl)c[nH]2)o1 [Compound 67],2,2 (compounds causing>50% inhibition of cell viability at 25 μM),,
Cc1[nH]c(-c2csc(-c3ccc(F)cc3)n2)nc1-c1ccccc1 [Compound 11],1 (compounds not causing a loss of viability at concentrations between 25 and 50 μM),2 (compounds causing>50% inhibition of cell viability at 25 μM),,
Cc1[nH]c(-c2cc(C)n(-c3ccc4c(c3)CCC4)c2C)nc1-c1ccccc1 [Compound 59],2,2 (compounds causing>50% inhibition of cell viability at 25 μM),,
FC(F)(F)Oc1ccccc1-c1ccc(-c2ncc(-c3ccccc3)[nH]2)o1 [Compound 63],2,,,
Cc1[nH]c(-c2ccc(-c3cccc(Br)c3)s2)nc1-c1ccccc1 [Compound 13],1 (compounds not causing a loss of viability at concentrations between 25 and 50 μM),1 (compounds causing less than 50% inhibition of cell viability at 50 μM),,
Cc1ccc(-c2ncc(-c3nc(-c4ccccc4)c(C)[nH]3)s2)cc1 [Compound 55],1 (compounds not causing a loss of viability at concentrations between 25 and 50 μM),,,
Cc1[nH]c(-c2cc(C)n(-c3ccc(C(C)C)cc3)c2C)nc1-c1ccccc1 [Compound 58],3,2 (compounds causing>50% inhibition of cell viability at 25 μM),,
Cc1nc(-c2ccc(-c3ccc(Cl)c(OC(F)(F)F)c3)o2)[nH]c1-c1ccc(F)cc1 [Compound 43],3,,,

Structure (SMILES),cytotoxicity cell line H [1],cytotoxicity cell line K [2],MIC [3],MIC [4]
Cc1[nH]c(-c2cc(C)n(-c3cccc(C(F)(F)F)c3)c2C)nc1-c1ccccc1 [Compound 36],3,2 (compounds causing>50% inhibition of cell viability at 25 μM),,
Cc1[nH]c(-c2ccc(-c3ccc(C(F)(F)F)cc3)s2)nc1-c1ccccc1 [Compound 46],1 (compounds not causing a loss of viability at concentrations between 25 and 50 μM),1 (compounds causing less than 50% inhibition of cell viability at 50 μM),,
Cc1[nH]c(-c2ccc(-c3ccccc3C(F)(F)F)o2)nc1-c1cccc(Cl)c1 [Compound 22],,2 (compounds causing>50% inhibition of cell viability at 25 μM),,
Cc1[nH]c(-c2cc(C)n(-c3ccc(F)c(F)c3F)c2C)nc1-c1ccccc1 [Compound 10],3,2 (compounds causing>50% inhibition of cell viability at 25 μM),,
Cc1[nH]c(-c2ccc(-c3ccccc3)s2)nc1-c1ccccc1 [Compound 74],1 (compounds not causing a loss of viability at concentrations between 25 and 50 μM),3 (compounds causing more than 50% inhibition of cell viability at 10 μM),,
Cc1[nH]c(-c2coc(-c3ccccc3C(F)(F)F)c2)nc1-c1ccccc1 [Compound 72],3,2 (compounds causing>50% inhibition of cell viability at 25 μM),,
Cc1[nH]c(-c2cc(C)n(-c3ccc(Cl)cc3)c2C)nc1-c1ccccc1 [Compound 8],2,1 (compounds causing less than 50% inhibition of cell viability at 50 μM),,
Cc1[nH]c(-c2ccc(-c3cccc(Cl)c3)s2)nc1-c1ccccc1 [Compound 12],1 (compounds not causing a loss of viability at concentrations between 25 and 50 μM),2 (compounds causing>50% inhibition of cell viability at 25 μM),,
"CC(=O)NC[C@H]1CN(c2ccc(N3CCOCC3)c(F)c2)C(=O)O1 [linezolid, reference compound]",,,,7.5 µg/mL
Cc1[nH]c(-c2cc(C)n(-c3ccc(F)cc3F)c2C)nc1-c1ccccc1 [Compound 9],3,2 (compounds causing>50% inhibition of cell viability at 25 μM),,
Cc1[nH]c(-c2ccc(-c3ccc(OC(F)(F)F)cc3)o2)nc1-c1ccc(Cl)cc1 [Compound 48],2,1 (compounds causing less than 50% inhibition of cell viability at 50 μM),,
Cc1[nH]c(-c2csc(-c3cccc(Br)c3)n2)nc1-c1ccccc1 [Compound 14],1 (compounds not causing a loss of viability at concentrations between 25 and 50 μM),1 (compounds causing less than 50% inhibition of cell viability at 50 μM),,
Cc1[nH]c(-c2ccc(-c3ccc(F)cc3)s2)nc1-c1ccccc1 [Compound 7],1 (compounds not causing a loss of viability at concentrations between 25 and 50 μM),2 (compounds causing>50% inhibition of cell viability at 25 μM),,
Cc1[nH]c(-c2ccc(-c3ccc(OC(F)(F)F)cc3Cl)o2)nc1-c1ccc(F)cc1 [Compound 51],3,3 (compounds causing more than 50% inhibition of cell viability at 10 μM),,
Cc1ccc(-c2nc(-c3nc(-c4ccccc4)c(C)[nH]3)cs2)cc1 [Compound 56],1 (compounds not causing a loss of viability at concentrations between 25 and 50 μM),3 (compounds causing more than 50% inhibition of cell viability at 10 μM),,
FC(F)(F)c1ccccc1-c1ccc(-c2nc(Cl)c(-c3ccccc3)[nH]2)o1 [Compound 65],2,,,
Cc1[nH]c(-c2ccc(-c3ccccc3C(F)(F)F)o2)nc1-c1ccc(Br)cc1 [Compound 25],0 (compounds without signs of cell viability loss at concentrations of 50 μM or higher),0 (compounds not causing loss of cell viability at concentrations of 50 μM or higher),,
Cc1[nH]c(-c2ccc(-c3cccc(C(F)(F)F)c3)o2)nc1-c1ccc(F)cc1 [Compound 38],1 (compounds not causing a loss of viability at concentrations between 25 and 50 μM),2 (compounds causing>50% inhibition of cell viability at 25 μM),,
CCc1ccc(-c2[nH]c(-c3ccc(-c4ccccc4C(F)(F)F)o3)nc2C)cc1 [Compound 28],1 (compounds not causing a loss of viability at concentrations between 25 and 50 μM),0 (compounds not causing loss of cell viability at concentrations of 50 μM or higher),,
Cc1nc(-c2ccc(-c3ccccc3OC(F)(F)F)o2)[nH]c1-c1cccc(Cl)c1 [Compound 21],3,2 (compounds causing>50% inhibition of cell viability at 25 μM),,
